Measurements: BindingDB's records for doi:10.1021/jm00094a001 (Abbott Laboratories, 1992)
pIC50: −log10 of the molar value. *1 amine or outer side, *2 acyl side, *3 side chain or, on linkers, in order; H or OH if unused. Where a SMILES comes first, the peptide text is derived from it. [ ]: non-standard residue; d: D form. The star is where a group is joined. Hydrocinnamoyl(4-OSO3H) = O=C(CCc1ccc(OS(=O)(=O)O)cc1)*; X2 = O=C([C@@H]1CC(OS(=O)(=O)O)CN1[*:1])[*:2]; X5 = CCC[C@H]1CCN([*:1])[C@@H]1C(=O)[*:2]; X4 = O=C(c1ccc2cc(OS(=O)(=O)O)ccc2c1)*; X1 = CCCC1CCN([*:1])[C@@H]1C(=O)[*:2]; X3 = O=C(/C(=C/c1ccccc1)N[*:1])[*:2]; NMeF = CN[C@@H](Cc1ccccc1)C(=O)O; Nle = CCCC[C@H](N)C(=O)O; Ava = NCCCCC(=O)O

Key:
[1] = molecular target: Gastrin/cholecystokinin type B receptor (Cavia porcellus); assay: Evaluated in vitro for its binding affinity towards cholecystokinin type B receptor of guinea pig cortex
[2] = molecular target: Gastrin/cholecystokinin type B receptor (Cavia porcellus); assay: as above; remark: listed apart in the source
[3] = molecular target: Cholecystokinin receptor type A (Cavia porcellus); assay: Evaluated in vitro for its binding affinity towards cholecystokinin type A receptor of guinea pig pancreas
[4] = molecular target: Gastrin/cholecystokinin type B receptor (Cavia porcellus); assay: In vitro binding affinity towards Cholecystokinin type B receptor of guinea pig cortex

Row | Compound | pIC50 [1] | pIC50 [3] | other results
1 | CCCC[C@H](NC(=O)CCc1ccc(OS(=O)(=O)O)cc1)C(=O)NCC(=O)N[C@@H](Cc1c[nH]c2ccccc12)C(=O)N[C@@H](CCCC)C(=O)N[C@@H](CC(=O)O)C(=O)N[C@@H](Cc1ccccc1)C(N)=O | 9.30 | – | –
2 | CCCC[C@H](NC(=O)[C@H](Cc1c[nH]c2ccccc12)NC(=O)CN1CC[C@H](NC(=O)CCc2ccc(OS(=O)(=O)O)cc2)C1=O)C(=O)N[C@@H](CC(=O)O)C(=O)N[C@@H](Cc1ccccc1)C(N)=O | 7.82 | – | –
3 | CC(C)C[C@H](NC(=O)[C@H](Cc1c[nH]c2ccccc12)NC(=O)CCCCNC(=O)CCc1ccc(OS(=O)(=O)O)cc1)C(=O)N[C@@H](CC(=O)O)C(=O)N[C@@H](Cc1ccccc1)C(N)=O ({Hydrocinnamoyl(4-OSO3H)-Ava}-WLDF-NH2) | 8.96 | – | –
4 | CCCC[C@H](NC(=O)CCc1ccc(OS(=O)(=O)O)cc1)C(=O)NCC(=O)N[C@@H](Cc1c[nH]c2ccccc12)C(=O)N[C@@H](CCCC)C(=O)N[C@@H](CC(=O)O)C(=O)N(C)[C@@H](Cc1ccccc1)C(N)=O [CCK7 analogue] ({Hydrocinnamoyl(4-OSO3H)}-[Nle]GW[Nle]D[NMeF]-NH2) | – | 9.00 | pIC50 [2]: 8.00
5 | CCCC[C@H](NC(=O)CCc1ccc(OS(=O)(=O)O)cc1)C(=O)NCC(=O)N[C@@H](Cc1c[nH]c2ccccc12)C(=O)N[C@@H](CCCC)C(=O)N1CC(OS(=O)(=O)O)C[C@H]1C(=O)N[C@@H](Cc1ccccc1)C(N)=O (some centres undefined) ({Hydrocinnamoyl(4-OSO3H)}-[Nle]GW[Nle][X2]F-NH2) | – | 7.80 | pIC50 [2]: 6.85
6 | CCCC[C@H](NC(=O)CCc1ccc(OS(=O)(=O)O)cc1)C(=O)NCC(=O)N[C@@H](Cc1c[nH]c2ccccc12)C(=O)N1CCC(CCC)[C@H]1C(=O)N[C@@H](CC(=O)O)C(=O)N(C)[C@@H](Cc1ccccc1)C(N)=O (some centres undefined) ({Hydrocinnamoyl(4-OSO3H)}-[Nle]GW[X1]D[NMeF]-NH2) | – | 8.38 | pIC50 [2]: 9.52
7 | CCCC[C@H](NC(=O)CCc1ccc(OS(=O)(=O)O)cc1)C(=O)NCC(=O)N[C@@H](Cc1c[nH]c2ccccc12)C(=O)N[C@@H](CCCC)C(=O)N[C@@H](CC(=O)O)C(=O)N/C(=C\c1ccccc1)C(N)=O ({Hydrocinnamoyl(4-OSO3H)}-[Nle]GW[Nle]D[X3]-NH2) | – | 8.28 | –
8 | CCCC[C@H](NC(=O)c1ccc2cc(OS(=O)(=O)O)ccc2c1)C(=O)NCC(=O)N[C@@H](Cc1c[nH]c2ccccc12)C(=O)N[C@@H](CCCC)C(=O)N[C@@H](CC(=O)O)C(=O)N[C@@H](Cc1ccccc1)C(N)=O (X4-[Nle]GW[Nle]DF-NH2) | 7.49 | – | –
9 | CCC[C@H]1CCN(C(=O)[C@H](Cc2c[nH]c3ccccc23)NC(=O)CNC(=O)[C@@H]2CCCN2C(=O)CCc2ccc(OS(=O)(=O)O)cc2)[C@@H]1C(=O)N[C@@H](CC(=O)O)C(=O)N(C)[C@@H](Cc1ccccc1)C(N)=O ({Hydrocinnamoyl(4-OSO3H)}-PGW[X5]D[NMeF]-NH2) | 9.05 | – | –
10 | CCCC[C@H](NC(=O)[C@H](Cc1c[nH]c2ccccc12)NC(=O)CNC(=O)[C@H](CC(C)C)NC(=O)CCc1ccc(OS(=O)(=O)O)cc1)C(=O)N[C@@H](CC(=O)O)C(=O)N[C@@H](Cc1ccccc1)C(N)=O ({Hydrocinnamoyl(4-OSO3H)}-LGW[Nle]DF-NH2) | 9.23 | – | –
11 | CCCC[C@H](NC(=O)[C@H](Cc1c[nH]c2ccccc12)NC(=O)CNC(=O)[C@@H](CCCC)NC(=O)CCc1ccc(OS(=O)(=O)O)cc1)C(=O)N[C@@H](CC(=O)O)C(=O)N[C@@H](Cc1ccccc1)C(N)=O | – | – | pIC50 [4]: 8.10
